Experiments:
cancer cells = settings: cited from earlier work
miR-221 = assay: level of miR-221 by real time PCR (RQ-PCR, taqman probe); assay type: cell-based, human; settings: for miR-221 levels: low doses alone: ATO 1 μM, hydrogen peroxide 10 μM, pyocyanin 50 μM
Hela and DU-145 cells = settings: cited from earlier work
U2OS cells = settings: cited from earlier work
[1] = test system: non-cancerous immortalized NOK cells; settings: cited from earlier work

For `C[S+]([O-])c1ccc(-c2nc(-c3ccncc3)c(-c3ccc(F)cc3)[nH]2)cc1` (stereo not drawn) [SB203580], which Ad.mda-7-induced apoptosis (cancer cells) is on record?
Its Ad.mda-7-induced apoptosis is “inhibits”.

Which miR-221 levels (miR-221; MDA-MB-231 cells) does the source give for Arsenic trioxide here?
Its miR-221 levels is “did not alter”.

Which miR-221 levels (miR-221; MDA-MB-231 cells) does the source give for `Cn1c2cccc(=O)c-2nc2ccccc21` [pyocyanin] here?
Its miR-221 levels is “did not alter”.

For `OO` [hydrogen peroxide], which miR-221 levels (miR-221; MDA-MB-231 cells) is on record?
Its miR-221 levels is “did not alter”.

Which “effect on down regulation of miR-221 by ROS inducer with Ad.mda-7” value (miR-221; MDA-MB-231 cells, pretreatment for 12 hours) does the source give for `CC(=O)N[C@@H](CS)C(=O)O` [NAC, N-acetyl cysteine] here?
The value was “abrogated down regulation of miR-221”.

And the “cell death mediated by mda-7/IL-24” value (cancer cells)?
The value was “inhibits”.

B1: His-MDA-7: purified recombinant His tagged MDA-7/IL-24 protein (protein, UniProt Q13007 52-206, looked up)
Interleukin-24: QEFHFGPCQVKGVVPQKLWEAFWAVKDTMQAQDNITSARLLQQEVLQNVSDAESCYLVHTLLEFYLKTVFKNYHNRTVEVRTLKSFSTLANNFVLIVSQLQPSQENEMFSIRDSAHRRFLLFRRAFKQLDVEAALTKALGEVDILLTWMQKFYKL
modifications: His tag
notes: purified recombinant His tagged MDA-7/IL-24 protein
What does the source list for B1?
miR-221 expression (miR-221; A549 cells (lack cognate receptor pairs)): remained unchanged; miR-221 expression (miR-221; A549 cells overexpressing IL-20R2 or IL-22R1): sensitive to miR-221 down regulation; miR-221 expression (miR-221; DU-145 cells (both receptor types)): decreased

B2: M1: MDA-7/IL-24 deletion mutant, signal peptide deleted (protein, UniProt Q13007 52-206, looked up)
Interleukin-24: QEFHFGPCQVKGVVPQKLWEAFWAVKDTMQAQDNITSARLLQQEVLQNVSDAESCYLVHTLLEFYLKTVFKNYHNRTVEVRTLKSFSTLANNFVLIVSQLQPSQENEMFSIRDSAHRRFLLFRRAFKQLDVEAALTKALGEVDILLTWMQKFYKL
modifications: signal peptide deleted
notes: MDA-7/IL-24 deletion mutant, signal peptide deleted
For B2, which “tumor inhibitory effects of MDA-7/IL-24” value (Hela and DU-145 cells) is on record?
Its value is “did not disrupt the tumor inhibitory effects”.

B3: Full length MDA-7/IL-24: full-length transcript with all 7 exons (protein, UniProt Q13007 1-206, looked up)
chain: MNFQQRLQSLWTLARPFCPPLLATASQMQMVVLPCLGFTLLLWSQVSGAQGQEFHFGPCQVKGVVPQKLWEAFWAVKDTMQAQDNITSARLLQQEVLQNVSDAESCYLVHTLLEFYLKTVFKNYHNRTVEVRTLKSFSTLANNFVLIVSQLQPSQENEMFSIRDSAHRRFLLFRRAFKQLDVEAALTKALGEVDILLTWMQKFYKL
modifications: full-length
notes: full-length transcript with all 7 exons
With B3 as the molecule, how does the U2OS cell viability (U2OS cells) read?
The U2OS cell viability was “capable of reducing U2OS cell viability”.

What about the “viability of NOK cells” value [1] of the same molecule?
Its value is “no effect”.

From patent US20200199681A1, “MDA-7 CANCER THERAPIES AND METHODS OF DETECTING BIOMOLECULES” (VIRGINIA COMMONWEATLH UNIVERSITY, priority 2016, published 2020)
